# From patent EP0590919A1, “Therapeutic agents for parkinson's disease” (KYOWA HAKKO KOGYO CO., LTD., priority 1992, dated 1994)
# Where two headings read alike, the source gives them in different places. Marks after values point to notes of the source that are not given here.
# What was measured:
# [1] = test system: MPTP-treated C57BL/6 mice; experiment: Effect on locomotor activity in Parkinson's disease model in mice (MPTP); assay type: in vivo; details: for Amount of Active Movements (average count ± S.E.M): MPTP (+)
# Experimental: The experiment was performed by using several groups of 7-weeks-old male C57BL/6 mice (weighing 20 to 24 g, Japan SLC), each group consisting of 8 mice. MPTP (Aldrich Chemical Co., Inc.) dissolved in a physiological saline solution (Otsuka Pharmaceutical Co., Ltd.) was intraperitoneally administered to each mouse once a day for five consecutive days at a dose of 30 mg/kg. A test compound was suspended in injectable distilled water (Otsuka Phamaceutical Co., Ltd.) containing Tween 80 [polyoxyethylene (20) sorbitan monooleate]. L-DOPA (Kyowa Hakko Kogyo Co., Ltd.) was suspended in 0.3% CMC (sodium carboxylmethylcellulose) and bromocriptine was suspended in injectable distilled water. Thirty minutes after the final MPTP administration, the test compound suspensions and the control suspension [injectable distilled water (Otsuka Pharmaceutical Co., Ltd.) containing Tween 80] containing no test compound were orally administered to separate groups of the mice (0.1 ml per 10 g of body weight). […] Statistical comparison of the values was carried out by Student's t-test.
# [2] = test system: Rats with a 6-Hydroxydopamine-Induced Unilateral Lesion of the Nigrostriatal Dopamine Pathway; experiment: Augmentation of apomorphine-induced contralateral rotation in 6-hydroxydopamine-lesioned rats; assay type: in vivo; details: test compound 1 mg/kg orally 30 minutes before apomorphine 0.1 mg/kg s.c.; 150 minutes
# Experimental: Then, the animals were anesthetized with sodium pentobarbital (30 mg/kg, i.p., Dainippon Pharm. Co., Ltd.) and the nigrostriatal pathway was lesioned by injection of 6-hydroxydopamine hydrobromide (8 µg, Sigma Co.) into the left medial forebrain bundle. 6-Hydroxydopamine hydrobromide was dissolved in physiological saline containing 0.05% L-ascorbic acid (Wako Pure Chem. Industries, Ltd.) to make 2 µl of solution and injected over 3 minutes.
# More than 10 days after surgery, each rat was placed in a plastic bowl (30 cm in diameter). […] The number of rotations was counted with an automated rotometer, in which each 180° turn was counted as a rotation.
# Test compounds were suspended in 0.3% sodium carboxymethylcellulose and administered orally at a dose of 1 mg/kg 30 minutes before the injection of apomorphine (0.1 mg/kg, s.c.). The counts of rotations were summed up every 5 minutes for 150 minutes after apomorphine administration. The total rotation counts induced by apomorphine (0.1 mg/kg, s.c.) with and without a test compound were statistically compared, using the same animals. Rats were allowed to rest more than 5 days between each experiment. Statistical comparison of the values was carried out by Sign-Wilcoxon test.
# [3] = test system: dd-strain male mice; experiment: Acute toxicity test (minimum lethal dose, oral); assay type: in vivo; details: oral administration, three mice per group, mortality seven days after administration
# Experimental: Test compounds were orally administered to groups of dd-strain male mice weighing 20 ± 1 g, each group consisting of three mice. Seven days after the administration, minimum lethal dose (MLD) of each compound was determined by observing the mortality.
# [4] = test system: Haloperidol-Induced Catalepsy; experiment: Effect on haloperidol-induced catalepsy; assay type: in vivo, mice; details: for ED50: Mus musculus, 1 h, read-out: ED₅₀; for Number of the Animals Showing Remission: of five mice, catalepsy score not more than 4 points; for Number of the Animals Showing Remission / Remission Rate (%) / Total Score: 10 mg/kg orally; for Remission Rate (%): rate of decrease in total score based on control group; for Total Score: total catalepsy score of five mice (25 points at the full), haloperidol 1.0 mg/kg i.p.
# In short: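 Mice got haloperidol 1.0 mg/kg i.p. in 0.3% CMC, then test compounds orally 1 hr later in 0.3% CMC or Tween 80/water. Catalepsy was scored on a 4.5 cm-high bar 1 hr after dosing; remission meant score ≤4 points. ED₅₀ came from Probit analysis.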
# [5] = target: T1, A₂ receptor (Rattus norvegicus, UniProt P30543); experiment: Adenosine A₂ receptor binding test (³H-NECA binding); details: for inhibition at 0.1 µM / inhibition at 1 µM / inhibition at 10 µM / inhibition at 100 µM: read-out: Inhibition (%) A₂ Receptor; for Ki: ³H-NECA binding
# T1 construct: from tissue; host or cells: rat corpus striatum membrane preparation
# T1 sequence (P30543 whole entry): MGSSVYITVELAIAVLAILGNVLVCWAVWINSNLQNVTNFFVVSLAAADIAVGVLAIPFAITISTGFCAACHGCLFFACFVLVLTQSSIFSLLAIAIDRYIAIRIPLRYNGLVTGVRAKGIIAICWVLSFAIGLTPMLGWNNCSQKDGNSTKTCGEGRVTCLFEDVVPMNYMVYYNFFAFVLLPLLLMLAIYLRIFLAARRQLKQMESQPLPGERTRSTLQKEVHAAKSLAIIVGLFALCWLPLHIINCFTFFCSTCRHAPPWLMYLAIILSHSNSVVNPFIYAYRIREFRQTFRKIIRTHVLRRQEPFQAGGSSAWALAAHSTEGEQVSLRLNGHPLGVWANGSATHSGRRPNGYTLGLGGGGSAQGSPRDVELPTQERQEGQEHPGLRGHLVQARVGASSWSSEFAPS
# [6] = target: T2, A₁ receptor (Cavia porcellus, UniProt P47745); experiment: Adenosine A₁ receptor binding test (³H-CHA binding); set-up: species or system guinea pig; details: for inhibition at 100 µM: 10⁻⁴M; for inhibition at 100 µM / inhibition at 10 µM: guinea pig cerebrum; for inhibition at 10 µM: 10⁻⁵M
# T2 construct: from tissue; host or cells: guinea pig cerebrum membrane preparation
# T2 sequence (P47745 1-326): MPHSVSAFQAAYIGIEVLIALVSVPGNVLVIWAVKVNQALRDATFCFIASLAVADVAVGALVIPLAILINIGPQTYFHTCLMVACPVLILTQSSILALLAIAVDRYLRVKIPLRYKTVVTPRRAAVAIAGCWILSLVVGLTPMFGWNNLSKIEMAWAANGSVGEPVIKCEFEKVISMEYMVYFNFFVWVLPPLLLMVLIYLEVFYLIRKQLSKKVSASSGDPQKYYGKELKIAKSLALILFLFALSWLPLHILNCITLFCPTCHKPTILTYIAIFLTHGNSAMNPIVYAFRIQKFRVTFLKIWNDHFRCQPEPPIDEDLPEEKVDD
# Experimental: Cerebrum of a guinea pig was suspended in ice-cooled 50 mM Tris hydroxymethyl aminomethane hydrochloride (Tris HCl) buffer (pH 7.7) by using Polytron homogenizer (manufactured by […] Co.). […] The suspension was centrifuged under the same conditions, and the final precipitate was suspended once again in 50 mM Tris HCl buffer to give a tissue concentration of 100 mg (wet weight)/ml. The tissue suspension was incubated at 37°C for 30 minutes in the presence of 0.02 unit/mg tissue of adenosine deaminase (manufactured by Sigma Co.). The tissue suspension was then centrifuged (50,000 x g, 10 minutes), and 50 mM Tris HCl buffer was added to the precipitate to adjust the concentration of tissue to 10 mg (wet weight)/ml. […] The mixture solution was allowed to stand at 25°C for 90 minutes and then rapidly filtered by suction through a glass fiber filter (GF/C manufactured by Whatman Co.). […] The radioactivity on the filter was determined with a liquid scintillation counter (manufactured by Packard Instrument Co.). […] The inhibition constant (Ki value) shown in the table was calculated by the Cheng-Prusoff's equation.
# [7] = target: T1, A₂ receptor; experiment: Adenosine A₂ receptor binding test (³H-CGS 21680 binding); details: [^3H]CGS 21680 was used, rat corpus striatum, read-out: A2 Receptor Inhibition (%)
# Experimental: The similar procedure as in the above-described adenosine A₁ receptor binding test was repeated using rat corpus striatum to obtain the final precipitate of the tissue thereof. The precipitate was suspended in 50 mM Tris HCl buffer containing 10 mM magnesium chloride and 0.02 unit/mg tissue of adenosine deaminase (manufactured by Sigma Co.) to give a tissue concentration of 5 mg (wet weight)/ml.
# The similar procedure as above was repeated to determine the radioactivity bound to the A₂ receptors using 50 µl of CGS 21680 labeled with tritium [³H-2-[p-(2-carboxyethyl)-phenethylamino]-5'-(N-ethylcarboxamide)adenosine: 40 Ci/mmol, manufactured by New England Nuclear Co. (J. Pharmacol. Exp. Ther., 251, 888 (1989)] (final concentration: 4.0 nM) in place of 50 µl of the mixture of N-ethylcarboxamidoadenosine labeled with tritium (³H-NECA: 26 Ci/mmol, manufactured by Amersham Co.) (final concentration: 3.8 nM) and cyclopentyladenosine (CPA, manufactured by Sigma Co.) (final concentration: 50 nM).
# The inhibition rate of the test compound against the binding of A₂ receptors (³H-CGS 21680 binding) was calculated by the following equation: [formula] [Notes] • 1. "B" means the amount of radioactivity of ³H-CGS 21680 bound in the presence of a test compound at a concentration shown in Table 4. • 2. "T" means the amount of radioactivity of ³H-CGS 21680 bound in the absence of a test compound. • 3. "N" means the amount of radioactivity of ³H-CGS 21680 bound in the presence of 100 µM CPA.
# [8] = test compound 2.5 mg/kg orally, 30 minutes starting 30 minutes after administration
# [9] = ten mice at each dose, effective = catalepsy score 3 or less, Probit analysis, oral
# [10] = test compound 10 mg/kg orally, 30 minutes starting 30 minutes after administration
Compound,"Amount of Active Movements (average count ± S.E.M) [1, 8] [count]",total amount of rotations (average count ± S.E.M.) test compound + apomorphine [2] [count],MLD [3] [mg/kg],"ED50 [4, 9] [mg/kg]",Number of the Animals Showing Remission [4],Remission Rate (%) [4] [%],Total Score [4],inhibition at 0.1 µM [5] [%],inhibition at 1 µM [5] [%],inhibition at 10 µM [5] [%],inhibition at 100 µM [5] [%],Ki [5] [nM],inhibition at 100 µM [6] [%],inhibition at 10 µM [6] [%],other results
"CC(C)C[C@H]1C(=O)N2CCC[C@H]2[C@]2(O)O[C@](NC(=O)[C@@H]3C=C4c5cccc6[nH]c(Br)c(c56)C[C@H]4N(C)C3)(C(C)C)C(=O)N12 [Bromocriptine, bromocriptine, reference compound]",–,–,–,–,–,–,–,–,–,–,–,–,–,–,"inhibitory activity against the depression of locomotor activity caused by MPTP ([1]; mouse, in vivo): only a weak inhibitory activity"
"CCn1c(=O)c2c(nc(/C=C/c3ccc(OC)c(OC)c3)n2C)n(CC)c1=O [Compound 2, (E)-8-(3,4-Dimethoxystyryl)-1,3-diethyl-7-methylxanthine]",1265 ±316.9,1584 ± 196,> 300,0.03,5,80,2,–,–,–,–,–,–,–,"Amount of Active Movements (average count ± S.E.M) ([1]; test compound 0.63 mg/kg orally, 30 minutes starting 30 minutes after administration): 610 ±147.9 count"
"CCn1c(=O)c2c(nc(/C=C/c3ccc(OC)c(OC)c3OC)n2C)n(CC)c1=O [Compound 8, (E)-1,3-Diethyl-7-methyl-8-(2,3,4-trimethoxystyryl)xanthine]",800 ±156.8,1406 ± 155,> 300,0.23,5,92,2,80,99,95,74,3.9,94,89,–
"CCn1c(=O)c2c(nc(/C=C/c3ccc(OC)c(C)c3C)n2C)n(CC)c1=O [Compound 10, (E)-1,3-Diethyl-8-(4-methoxy-2,3-dimethylstyryl)-7-methylxanthine]",–,1637 ± 127,> 300,0.24,5,68,–,91,94,90,93,2,56,57,"Amount of Active Movements (average count ± S.E.M) [1, 10]: 754 ±174.2 count"
"CCn1c(=O)c2c(nc(/C=C/c3ccc(OC)c(C)c3OC)n2C)n(CC)c1=O [Compound 14, (E)-8-(2,4-Dimethoxy-3-methylstyryl)-1,3-diethyl-7-methylxanthine]",–,1378 ± 216,> 300,–,5,92,1,–,–,–,–,1.6,–,–,"Amount of Active Movements (average count ± S.E.M) [1, 10]: 817 ±163.1 count; ED50 ([4]; po): 0.6 mg/kg"
"COc1ccc(/C=C/c2nc3c(c(=O)n(C)c(=O)n3C)n2C)c(OC)c1OC [Compound 20, (E)-8-(2,3,4-Trimethoxystyryl)caffeine]",937 ±189.5,–,> 300,0.35,5,72,7,51,83,90,88,50,1,11,"Ratio (A₁/A₂) ([5]; ratio of Ki values A₁/A₂): > 2,000; Ki ([6]; Cheng-Prusoff's equation): > 100000 nM"
"CCn1c(=O)c2c(nc(/C=C/c3cc(OC)c4c(c3)OCO4)n2C)n(CC)c1=O [Compound 107, (E)-1,3-Diethyl-8-(3-methoxy-4,5-methylenedioxystyryl)-7-methylxanthine]",604 ±192.6,1490 ± 146,> 100,0.01,5,92,3,–,–,–,–,–,–,–,inhibition at 1 µM ([7]; 10^-6M): 84%; inhibition at 0.1 µM ([7]; 10^-7M): 93%
"N[C@@H](Cc1ccc(O)c(O)c1)C(=O)O [L-DOPA, reference compound]",–,–,–,–,–,–,–,–,–,–,–,–,–,–,"Amount of Active Movements (average count ± S.E.M) ([1]; L-DOPA 300 mg/kg orally): 561 ±271.01^1) count; inhibitory activity against the depression of locomotor activity caused by MPTP ([1]; oral, L-DOPA 300 mg/kg, bromocriptine 40 mg/kg, Compounds (I) 10 mg/kg or less than 10 mg/kg): only a weak inhibitory activity"
